Source: patent US20260193264A1, “BENZOYPARAZINE PYRAZINES AND THEIR USES” (FOGHORN THERAPEUTICS INC., priority 2022, published 2026)

Legend:
[1] = target: T1, HiBiT-BRM fusion protein in stable HeLa cell line (Homo sapiens, UniProt P51531); test: HiBiT-BRM cell-based degradation assay (Nano-Glo HiBiT Lytic Detection, 24 h); set-up: DC50: scale not given here; conditions: HeLa HiBiT-BRM cells; for DC50: read-out: BRM HiBit Degradation IC50; for BRM HiBit Degradation Maximum (%): top dose 30 μM
T1 construct: expressed in transfected cells
How it was run: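 Luminescence from HiBiT/LgBiT complementation after lysis reports remaining HiBiT-BRM in stable HeLa cells exposed to compound for 24 h. Dosing used 3-fold serial dilutions, 10 points, 30 μM top final concentration. DMSO and a 2 μM BRM/BRG1 degrader standard defined 0% and 100% degradation.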

[2] = target: T2, HiBit-BRG1 fusion protein in stable HeLa cell line expressing HiBit-BRG1 and LgBit (Homo sapiens, UniProt P51532); test: HiBiT-BRG1 cell-based degradation assay (Nano-Glo HiBiT, 24 h); conditions: HeLa HiBit-BRG1/LgBit cells; for DC50: read-out: BRMG1 HiBit Degradation IC50; for Dmax: top dose 30 μM, read-out: BRG1 HiBit Degradation Maximum (%)
T2 construct: expressed in transfected cells
How it was run: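 Stable HeLa line co-expressing HiBiT-BRG1 and LgBiT, compound-treated 24 h; luminescence read after Nano-Glo HiBiT lytic reagent. % degradation normalised between DMSO (high control) and 2 μM reference BRM/BRG1 degrader (low control).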

T1 sequence (P51531 whole entry, the tested form may be a part): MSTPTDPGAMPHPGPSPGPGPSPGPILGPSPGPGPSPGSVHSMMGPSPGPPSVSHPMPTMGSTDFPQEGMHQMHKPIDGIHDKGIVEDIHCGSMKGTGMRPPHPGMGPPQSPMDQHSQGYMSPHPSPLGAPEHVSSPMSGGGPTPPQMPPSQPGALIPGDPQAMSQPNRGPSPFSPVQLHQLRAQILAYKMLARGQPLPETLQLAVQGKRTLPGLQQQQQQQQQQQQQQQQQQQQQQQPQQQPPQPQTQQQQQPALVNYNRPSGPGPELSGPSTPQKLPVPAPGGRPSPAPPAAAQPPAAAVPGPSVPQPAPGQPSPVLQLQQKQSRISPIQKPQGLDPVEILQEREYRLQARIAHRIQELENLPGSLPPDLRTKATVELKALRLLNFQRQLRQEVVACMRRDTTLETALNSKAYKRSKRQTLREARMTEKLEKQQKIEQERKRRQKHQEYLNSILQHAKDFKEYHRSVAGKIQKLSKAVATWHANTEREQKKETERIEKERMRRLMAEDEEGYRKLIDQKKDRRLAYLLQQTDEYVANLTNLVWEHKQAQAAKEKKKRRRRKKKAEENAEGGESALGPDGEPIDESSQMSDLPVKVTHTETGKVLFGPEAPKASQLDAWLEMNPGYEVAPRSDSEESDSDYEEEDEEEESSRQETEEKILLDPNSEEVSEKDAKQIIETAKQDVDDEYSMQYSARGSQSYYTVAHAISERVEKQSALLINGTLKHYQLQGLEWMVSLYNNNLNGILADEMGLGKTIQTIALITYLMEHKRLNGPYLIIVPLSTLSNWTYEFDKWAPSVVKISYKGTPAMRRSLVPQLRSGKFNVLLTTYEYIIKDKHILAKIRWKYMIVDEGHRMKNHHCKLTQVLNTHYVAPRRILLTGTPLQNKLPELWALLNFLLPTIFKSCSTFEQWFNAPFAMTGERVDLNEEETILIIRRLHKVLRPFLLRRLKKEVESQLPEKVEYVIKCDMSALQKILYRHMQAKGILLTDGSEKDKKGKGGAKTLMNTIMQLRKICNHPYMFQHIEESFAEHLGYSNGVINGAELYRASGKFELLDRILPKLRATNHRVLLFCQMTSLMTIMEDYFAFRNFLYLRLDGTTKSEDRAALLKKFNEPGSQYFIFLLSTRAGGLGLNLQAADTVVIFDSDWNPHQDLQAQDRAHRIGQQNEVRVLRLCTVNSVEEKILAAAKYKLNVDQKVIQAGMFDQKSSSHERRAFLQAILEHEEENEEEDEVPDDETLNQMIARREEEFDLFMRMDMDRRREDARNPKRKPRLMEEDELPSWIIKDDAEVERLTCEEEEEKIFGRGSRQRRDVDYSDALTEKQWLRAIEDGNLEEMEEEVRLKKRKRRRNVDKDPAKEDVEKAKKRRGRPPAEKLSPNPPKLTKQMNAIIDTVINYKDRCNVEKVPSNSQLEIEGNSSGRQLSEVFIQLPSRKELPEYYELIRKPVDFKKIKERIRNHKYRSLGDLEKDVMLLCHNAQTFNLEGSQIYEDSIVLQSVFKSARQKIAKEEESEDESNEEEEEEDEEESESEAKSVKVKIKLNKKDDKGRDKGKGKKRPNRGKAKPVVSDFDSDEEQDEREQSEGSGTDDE
T2 sequence (P51532 whole entry, the tested form may be a part): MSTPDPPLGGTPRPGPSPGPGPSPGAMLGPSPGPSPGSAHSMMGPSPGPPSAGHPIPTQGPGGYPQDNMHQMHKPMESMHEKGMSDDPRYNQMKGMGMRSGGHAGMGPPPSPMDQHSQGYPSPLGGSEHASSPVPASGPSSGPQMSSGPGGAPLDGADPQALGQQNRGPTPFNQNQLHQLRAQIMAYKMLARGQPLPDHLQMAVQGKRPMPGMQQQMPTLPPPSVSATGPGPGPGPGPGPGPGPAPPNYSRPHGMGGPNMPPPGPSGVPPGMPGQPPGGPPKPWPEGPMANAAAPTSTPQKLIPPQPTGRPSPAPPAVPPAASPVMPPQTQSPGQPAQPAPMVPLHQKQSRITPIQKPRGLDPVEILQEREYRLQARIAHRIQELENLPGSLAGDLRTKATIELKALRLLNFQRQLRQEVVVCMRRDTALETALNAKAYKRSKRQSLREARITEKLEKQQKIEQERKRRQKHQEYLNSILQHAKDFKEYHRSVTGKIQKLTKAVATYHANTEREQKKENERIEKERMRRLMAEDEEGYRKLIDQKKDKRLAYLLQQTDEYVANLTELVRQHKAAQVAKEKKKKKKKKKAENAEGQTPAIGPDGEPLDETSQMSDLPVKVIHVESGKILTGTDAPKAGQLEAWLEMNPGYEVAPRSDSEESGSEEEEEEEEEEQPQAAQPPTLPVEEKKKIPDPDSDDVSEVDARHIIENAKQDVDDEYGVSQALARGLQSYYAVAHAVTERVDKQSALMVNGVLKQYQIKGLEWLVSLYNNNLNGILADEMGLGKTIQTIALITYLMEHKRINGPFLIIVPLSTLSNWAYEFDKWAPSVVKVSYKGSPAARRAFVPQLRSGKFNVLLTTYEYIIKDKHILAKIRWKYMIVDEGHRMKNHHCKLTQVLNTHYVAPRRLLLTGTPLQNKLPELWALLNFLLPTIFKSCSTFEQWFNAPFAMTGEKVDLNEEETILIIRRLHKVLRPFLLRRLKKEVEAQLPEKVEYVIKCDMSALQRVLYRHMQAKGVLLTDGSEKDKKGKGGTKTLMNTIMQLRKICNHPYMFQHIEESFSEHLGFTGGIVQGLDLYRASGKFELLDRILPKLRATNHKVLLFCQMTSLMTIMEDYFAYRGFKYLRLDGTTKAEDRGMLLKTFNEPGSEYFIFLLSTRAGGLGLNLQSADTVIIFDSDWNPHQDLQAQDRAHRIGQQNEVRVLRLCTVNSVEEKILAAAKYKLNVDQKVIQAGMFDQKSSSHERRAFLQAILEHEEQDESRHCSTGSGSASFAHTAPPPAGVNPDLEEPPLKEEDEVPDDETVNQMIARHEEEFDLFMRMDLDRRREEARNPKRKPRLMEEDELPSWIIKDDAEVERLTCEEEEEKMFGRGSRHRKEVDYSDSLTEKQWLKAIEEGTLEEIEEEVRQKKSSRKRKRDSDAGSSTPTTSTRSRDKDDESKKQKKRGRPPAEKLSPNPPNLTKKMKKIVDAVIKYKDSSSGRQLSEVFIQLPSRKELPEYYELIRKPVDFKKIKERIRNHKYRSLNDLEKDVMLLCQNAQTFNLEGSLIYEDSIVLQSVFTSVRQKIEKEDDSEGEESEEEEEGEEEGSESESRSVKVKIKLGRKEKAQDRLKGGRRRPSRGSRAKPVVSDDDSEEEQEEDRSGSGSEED

Row | SMILES | DC50 [1] | BRM HiBit Degradation Maximum (%) [1] | DC50 [2] | Dmax [2]
1 | Cc1ncsc1-c1ccc([C@H](C)NC(=O)[C@@H]2C[C@@H](O)CN2C(=O)[C@@H](c2cc(N3CCC4(CC[C@@H](c5ccc6nnc(-c7ccccc7O)cc6c5)C4)CC3)no2)C(C)C)cc1 [Compound 76, (2S,4R)-4-hydroxy-1-((R)-2-(3-((R)-2-(3-(2-hydroxyphenyl)cinnolin-6-yl)-8-azaspiro[4.5]decan-8-yl)isoxazol-5-yl)-3-methylbutanoyl)-N-((S)-1-(4-(4-methylthiazol-5-yl)phenyl)ethyl)pyrrolidine-2-carboxamide] | < 10 nM | A (“A” indicates maximum degradation ≥75%) | > 10 nM | > 75%
2 | Cc1ncsc1-c1ccc([C@H](C)NC(=O)[C@@H]2C[C@@H](O)CN2C(=O)[C@@H](c2cc(N3CC4=C(CN(c5ccc6cc(-c7ccccc7O)nnc6c5)C4)C3)no2)C(C)C)cc1 [Compound 228, (2S,4R)-4-hydroxy-1-((R)-2-(3-(5-(3-(2-hydroxyphenyl)cinnolin-7-yl)-3,4,5,6-tetrahydropyrrolo[3,4-c]pyrrol-2(1H)-yl)isoxazol-5-yl)-3-methylbutanoyl)-N-((S)-1-(4-(4-methylthiazol-5-yl)phenyl)ethyl)pyrrolidine-2-carboxamide] | < 10 nM | A (“A” indicates maximum degradation ≥75%) | < 10 nM | > 75%
3 | Cc1ncsc1-c1ccc([C@H](C)NC(=O)[C@@H]2C[C@@H](O)CN2C(=O)[C@@H](c2cc(N3CCN([C@@H]4CCN(c5ccc6nnc(-c7ccccc7O)cc6c5)CC4(F)F)CC3)no2)C(C)C)cc1 [Compound 124, (2S,4R)-1-((R)-2-(3-(4-((R)-3,3-difluoro-1-(3-(2-hydroxyphenyl)cinnolin-6-yl)piperidin-4-yl)piperazin-1-yl)isoxazol-5-yl)-3-methylbutanoyl)-4-hydroxy-N-((S)-1-(4-(4-methylthiazol-5-yl)phenyl)ethyl)pyrrolidine-2-carboxamide] | < 10 nM | A (“A” indicates maximum degradation ≥75%) | < 10 nM | > 75%
4 | Cc1ncsc1-c1ccc([C@H](C)NC(=O)[C@@H]2C[C@@H](O)CN2C(=O)[C@@H](c2cc(-c3cnc(N4CC(c5cc(C6CC6)c6cc(-c7ccccc7O)nnc6c5)C4)nc3)no2)C(C)C)cc1 [Compound 77, (2S,4R)-1-((R)-2-(3-(2-(3-(5-cyclopropyl-3-(2-hydroxyphenyl)cinnolin-7-yl)azetidin-1-yl)pyrimidin-5-yl)isoxazol-5-yl)-3-methylbutanoyl)-4-hydroxy-N-((S)-1-(4-(4-methylthiazol-5-yl)phenyl)ethyl)pyrrolidine-2-carboxamide] | < 10 nM | A (“A” indicates maximum degradation ≥75%) | – | < 50%
5 | CC(C)[C@@H](C(=O)N1C[C@H](O)C[C@H]1C(=O)N[C@@H](C)c1ccc(Br)cc1)c1cc(N2CC3(CN(c4ccc5cc(-c6ccccc6O)nnc5c4)C3)C2)no1 [Compound 109, (2S,4R)-N-((S)-1-(4-bromophenyl)ethyl)-4-hydroxy-1-((R)-2-(3-(6-(3-(2-hydroxyphenyl)cinnolin-7-yl)-2,6-diazaspiro[3.3]heptan-2-yl)isoxazol-5-yl)-3-methylbutanoyl)pyrrolidine-2-carboxamide] | < 10 nM | A (“A” indicates maximum degradation ≥75%) | – | < 50%
6 | Cc1ncsc1-c1ccc([C@H](C)NC(=O)[C@@H]2C[C@@H](O)CN2C(=O)[C@@H](c2cc(OCCN3CC(c4ccc5cc(-c6ccccc6O)nnc5c4)C3)no2)C(C)C)cc1 [Compound 8, (2S,4R)-4-hydroxy-1-[(2R)-2-[3-(2-{3-[3-(2-hydroxyphenyl)cinnolin-7-yl]azetidin-1-yl}ethoxy)-1,2-oxazol-5-yl]-3-methylbutanoyl]-N-[(1S)-1-[4-(4-methyl-1,3-thiazol-5-yl)phenyl]ethyl]pyrrolidine-2-carboxamide] | < 10 nM | A (“A” indicates maximum degradation ≥75%) | – | > 50%
7 | Cc1ncsc1-c1ccc([C@H](C)NC(=O)[C@@H]2C[C@@H](O)CN2C(=O)C(C(C)C)n2cc(N3CC4(CN(c5ccc6cc(-c7ccccc7O)nnc6c5)C4)C3)cn2)cc1 (stereo in doubt) [Compound 257, (2S,4R)-4-hydroxy-1-((R)-2-(4-(6-(3-(2-hydroxyphenyl)cinnolin-7-yl)-2,6-diazaspiro[3.3]heptan-2-yl)-1H-pyrazol-1-yl)-3-methylbutanoyl)-N-((S)-1-(4-(4-methylthiazol-5-yl)phenyl)ethyl)pyrrolidine-2-carboxamide] | < 10 nM | A (“A” indicates maximum degradation ≥75%) | – | < 50%
8 | Cc1ncsc1-c1ccc([C@H](C)NC(=O)[C@@H]2C[C@@H](O)CN2C(=O)[C@@H](c2cc(-c3cnc(N4CC(c5cc6cc(-c7ccccc7O)nnc6cc5C5CC5)C4)nc3)no2)C(C)C)cc1 [Compound 79, (2S,4R)-1-((R)-2-(3-(2-(3-(7-cyclopropyl-3-(2-hydroxyphenyl)cinnolin-6-yl)azetidin-1-yl)pyrimidin-5-yl)isoxazol-5-yl)-3-methylbutanoyl)-4-hydroxy-N-((S)-1-(4-(4-methylthiazol-5-yl)phenyl)ethyl)pyrrolidine-2-carboxamide] | < 10 nM | A (“A” indicates maximum degradation ≥75%) | < 10 nM | > 75%
9 | Cc1ncsc1-c1ccc([C@H](C)NC(=O)[C@@H]2C[C@@H](O)CN2C(=O)[C@@H](c2cc(N3CC4(C3)CN(c3cc5nnc(-c6ccccc6O)cc5cc3OC3CC3)C4)no2)C(C)C)cc1 [Compound 253, (2S,4R)-1-((R)-2-(3-(6-(6-cyclopropoxy-3-(2-hydroxyphenyl)cinnolin-7-yl)-2,6-diazaspiro[3.3]heptan-2-yl)isoxazol-5-yl)-3-methylbutanoyl)-4-hydroxy-N-((S)-1-(4-(4-methylthiazol-5-yl)phenyl)ethyl)pyrrolidine-2-carboxamide] | < 10 nM | A (“A” indicates maximum degradation ≥75%) | < 10 nM | > 75%
10 | Cc1ncsc1-c1ccc([C@H](C)NC(=O)[C@@H]2C[C@@H](O)CN2C(=O)[C@@H](c2cc(N3CCC[C@@H](c4ccc5cc(-c6ccccc6O)nnc5c4)C3)no2)C(C)C)cc1 [Compound 91, (2S,4R)-4-hydroxy-1-((R)-2-(3-((S)-3-(3-(2-hydroxyphenyl)cinnolin-7-yl)piperidin-1-yl)isoxazol-5-yl)-3-methylbutanoyl)-N-((S)-1-(4-(4-methylthiazol-5-yl)phenyl)ethyl)pyrrolidine-2-carboxamide] | < 10 nM | A (“A” indicates maximum degradation ≥75%) | < 10 nM | > 75%
11 | Cc1ncsc1-c1ccc([C@H](C)NC(=O)[C@@H]2C[C@@H](O)CN2C(=O)[C@@H](c2cc(N3CCOC4(CCN(c5ccc6nnc(-c7ccccc7O)cc6c5)CC4)C3)no2)C(C)C)cc1 [Compound 147, (2S,4R)-4-hydroxy-1-((R)-2-(3-(9-(3-(2-hydroxyphenyl)cinnolin-6-yl)-1-oxa-4,9-diazaspiro[5.5]undecan-4-yl)isoxazol-5-yl)-3-methylbutanoyl)-N-((S)-1-(4-(4-methylthiazol-5-yl)phenyl)ethyl)pyrrolidine-2-carboxamide] | < 10 nM | A (“A” indicates maximum degradation ≥75%) | > 10 nM | > 75%
